Measured values taken from US20250257034A1, “INDOLE DERIVATIVES AS SEROTONERGIC AGENTS USEFUL FOR THE TREATMENT OF DISORDERS RELATED THERETO” (priority 2023, published 2025).
Read-outs that look alike come from different tables or passages of the source.

Columns and labels:
[1] = Human liver microsomes stability; type: in vitro ADME; conditions: for half-life at 2 μM / microsomal CLint at 2 μM: 2 μM compound; for microsomal CLint at 2 μM: read-out: CLint (μL/min/mg protein); for CLint scaled at 2 μM: read-out: Scaled-up CLint
Method: The objective of this study was to estimate in vitro metabolic stability of exemplary compounds of Formula (I) or a pharmaceutically acceptable salt, solvate, and/or prodrug thereof in pooled human, male rat, and male mouse liver microsomes. The concentrations of compounds in reaction systems were evaluated by LC-MS/MS for estimating the stability in pooled human, male rat, and male mouse liver microsomes. The in vitro intrinsic clearances of test compounds were determined as well.
A master solution in the “Incubation Plate” containing phosphate buffer, ultra-pure H2O, MgCl2 solution and liver microsomes was made according to Table 33. The mixture was pre-warmed at 37° C. water bath for 5 minutes.
40 μL of 10 mM nicotinamide adenine dinucleotide phosphate (NADPH) solution was added to each well. The final concentration of NADPH was 1 mM. The negative control samples were prepared by replacing NADPH with 40 μL of ultra-pure H2O. Samples were prepared in duplicate. Negative controls were prepared in singlet.
The reaction was started with the addition of 4 μL of 200 μM exemplary test compounds of the disclosure or control compounds to each master solution to get the final concentration of 2 μM. This study was performed in duplicate.
Aliquots of 50 μL were taken from the reaction solution at 0, 15, 30, 45, and 60 minutes. The reaction solutions were stopped by the addition of 4 volumes of cold methanol with IS (100 nM alprazolam, 200 nM imipramine, 200 nM labet alol and 2 μM ketoprofen). Samples were centrifuged at 3,220 g for 40 minutes. Aliquot of 90 μL of the supernatant was mixed with 90 μL of ultra-pure H2O and then was used for LC-MS/MS analysis.
LC/MS analysis was performed for all samples from this study using a Shimadzu liquid chromatograph separation system equipped with degasser DGU-20A5R; solvent delivery unit LC-30AD; system controller SIL-30AC; column oven CTO-30A; CTC Analytics HTC PAL System. Mass spectrometric analysis was performed using a Triple Quad™ 5500 instrument.
All calculations were carried out using Microsoft Excel. Peak area ratios of test compound to internal standard (listed in the below table) were determined from extracted ion chromatograms.
All calculations were carried out using Microsoft Excel. Peak areas were determined from extracted ion chromatograms. The slope value, k, was determined by linear regression of the natural logarithm of the remaining percentage of the parent drug vs. incubation time curve.
The in vitro half-life (in vitro t1/2) was determined from the slope value:
Conversion of the in vitro t1/2(min) into the in vitro intrinsic clearance (in vitro CLint, in μL/min/mg proteins) was done using the following equation (mean of duplicate determinations): […]
A master solution in the “Incubation Plate” containing phosphate buffer, ultra-pure H2O, MgCl2 solution and liver microsomes was made according to Table 63. The mixture was pre-warmed at 37° C. water bath for 5 minutes.
40 μL of 10 mM NADPH solution was added to each well. The final concentration of NADPH was 1 mM. The negative control samples were prepared by replacing NADPH with 40 μL of ultra-pure H2O. Samples were prepared in duplicate. Negative controls were prepared in singlet.
Conversion of the in vitro t1/2(min) into the in vitro intrinsic clearance (in vitro C Lt, in μL/min/mg proteins) was done using the following equation (mean of duplicate determinations): […]

[2] = target: T1, human 5-HT2C receptor (Homo sapiens, UniProt P28335); assay: cell-based
T1 construct: expressed in transfected cells; host or cells: U2OS, stably transfected
T1 sequence (P28335 33-458): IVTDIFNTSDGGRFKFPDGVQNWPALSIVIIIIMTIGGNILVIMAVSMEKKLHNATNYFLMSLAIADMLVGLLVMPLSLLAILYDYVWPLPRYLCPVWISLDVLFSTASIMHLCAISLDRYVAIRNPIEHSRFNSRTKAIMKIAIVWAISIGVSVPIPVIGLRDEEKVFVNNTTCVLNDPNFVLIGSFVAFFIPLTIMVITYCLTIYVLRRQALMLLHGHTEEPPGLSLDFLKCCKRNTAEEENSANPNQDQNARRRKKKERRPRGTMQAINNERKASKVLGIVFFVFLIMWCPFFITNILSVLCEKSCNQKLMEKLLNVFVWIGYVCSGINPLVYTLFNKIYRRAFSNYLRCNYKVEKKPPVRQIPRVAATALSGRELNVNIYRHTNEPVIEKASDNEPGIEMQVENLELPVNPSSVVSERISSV

[3] = target: 5-HT2B receptor (Homo sapiens, UniProt P41595); assay: h-5HT2B FLIPR calcium mobilization assay in HEK293 cells; type: cell-based; set-up: expressed in transfected cells; host or cells: HEK293, stably transfected
Method: Compound potency (EC50) and efficacy (Max response) against the human 5-HT2B receptor in stably transfected HEK293 cells was determined in a calcium mobilization-based assay.
Cells were seeded in a total volume of 20 μL into white walled, 384-well microplates and incubated at 37° C. overnight. Prior to testing, cell plating media was exchanged with 20 μL of Dye Loading buffer (HBSS+20 mM HEPES containing 1×Dye, 1×Additive A and 2.5 mM Probenecid). Plates were incubated at 37° C. for 45 mins followed by 15 mins at room temperature.
(§1) 10 μl of assay buffer (HBSS+20 mM HEPES) was added to cells. Intermediate dilution of sample stocks was performed to generate 4×sample in assay buffer. Assay plates, compound plates were loaded into F LIP R instrument. 10 μL of sample was added using F LIP R onboard robotics after 5 seconds of starting calcium measurement. Final assay vehicle concentration was 1%. The results are expressed as a percent efficacy relative to the maximum response of the control ligand (serotonin) in Table 28.
as §1, with “57.” for “28.”

[4] = human liver microsomes, 0.5 mg/mL
[5] = human liver microsomes, With Cofactors, 0 min
[6] = human liver microsomes, With Cofactors, 30 min
[7] = human liver microsomes, With Cofactors, 60 min
[8] = human liver microsomes, Without Cofactors, 0 min
[9] = human liver microsomes, Without Cofactors, 30 min
[10] = human liver microsomes, Without Cofactors, 60 min
[11] = FLIPR calcium mobilization, U2OS cells
[12] = calcium mobilization, U2OS cells (Table 30)
[13] = relative to maximum response of serotonin (Table 30)
[14] = Human liver microsomes, 0.5 mg/mL microsomes, 1 mM NADPH, 37° C
[15] = Human liver microsomes, 0.5 mg/mL microsomes, 1 mM NADPH
[16] = relative to maximum response of serotonin (Table 28)

5-HT2B receptor, sequence (P41595 whole entry): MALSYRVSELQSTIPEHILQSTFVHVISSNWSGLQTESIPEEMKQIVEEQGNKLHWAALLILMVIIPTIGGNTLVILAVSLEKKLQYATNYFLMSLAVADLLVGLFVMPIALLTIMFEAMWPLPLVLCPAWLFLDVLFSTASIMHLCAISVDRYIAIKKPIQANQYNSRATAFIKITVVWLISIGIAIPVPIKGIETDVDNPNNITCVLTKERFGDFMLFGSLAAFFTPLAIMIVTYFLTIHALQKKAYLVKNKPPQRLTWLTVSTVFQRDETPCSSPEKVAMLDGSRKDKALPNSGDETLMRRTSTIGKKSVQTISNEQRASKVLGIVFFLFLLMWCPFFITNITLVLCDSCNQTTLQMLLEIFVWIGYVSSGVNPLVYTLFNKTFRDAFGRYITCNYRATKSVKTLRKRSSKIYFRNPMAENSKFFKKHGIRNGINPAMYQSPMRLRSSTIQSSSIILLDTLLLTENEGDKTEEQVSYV

SMILES | Predicted hepatic CL ([1]; human liver microsomes) [mL/min/kg] | half-life at 2 μM [1, 4] [min] | microsomal CLint at 2 μM [1, 4] [µL/min/mg] | Remaining Percentage (%) [1, 5] [%] | Remaining Percentage (%) [1, 6] [%] | Remaining Percentage (%) [1, 7] [%] | Remaining Percentage (%) [1, 8] [%] | Remaining Percentage (%) [1, 9] [%] | Remaining Percentage (%) [1, 10] [%] | CLint scaled at 2 μM ([1]; human liver microsomes) [mL/min/kg] | Predicted hepatic CL ([1]; Human liver microsomes) [mL/min/kg] | half-life at 2 μM [1, 14] [min] | microsomal CLint at 2 μM [1, 15] [µL/min/mg] | CLint scaled at 2 μM ([1]; Human liver microsomes) [mL/min/kg] | other results
COc1ccc2[nH]cc(CCN3CC[C@@H](OC)C3)c2c1 [(R) I-66, (R)-5-methoxy-3-(2-(3-methoxypyrrolidin-1-yl)ethyl)-1H-indole] | 4.37 | 314 | 4.42 | 100.00 | 98.13 | 87.59 | 100.00 | 100.00 | 98.15 | 5.54 |  |  |  |  | 
COc1ccc2[nH]cc(CCN3CC[C@@H](OC(F)F)C3)c2c1 [(R) I-67, (R)-3-(2-(3-(Difluoromethoxy)pyrrolidin-1-yl)ethyl)-5-methoxy-1H-indole] | 15.34 | 29.3 | 47.3 | 100.00 | 47.22 | 24.23 | 100.00 | 79.21 | 71.91 | 59.3 |  |  |  |  | 
COc1ccc2[nH]cc(CCN3CC[C@H](OC(F)F)C3)c2c1 [(S) I-67, (S)-3-(2-(3-(Difluoromethoxy)pyrrolidin-1-yl)ethyl)-5-methoxy-1H-indole] | 13.30 | 46.8 | 29.6 | 100.00 | 66.20 | 41.10 | 100.00 | 98.68 | 100.00 | 37.2 |  |  |  |  | EC50 [2, 11]: 2690 nM; Emax (% of serotonin) [2, 11]: 75.3 % of serotonin; EC50 [3]: > 10000 nM; Emax (% of serotonin) ([3]; relative to maximum response of serotonin (Table 57)): 4.23 % of serotonin
[2H]C([2H])([2H])N(CCc1c[nH]c2ccc(SC)cc12)C([2H])([2H])[2H] [Compound I-1, N,N-Bis(methyl-d3)-2-(5-(methylthio)-1H-indol-3-yl)ethan-1-amine] |  |  |  |  |  |  |  |  |  |  | 19.31 | 6.04 | 230 | 288 | EC50 [2, 12]: 2.37 nM; Emax (% of serotonin) [2, 13]: 98.89 % of serotonin; EC50 [3]: > 10000 nM; Emax (% of serotonin) [3, 16]: 19.8 % of serotonin
CCN(CC)CCc1c[nH]c2ccc(SC)cc12 [Compound I-12, N,N-Diethyl-2-(5-(methylthio)-1H-indol-3-yl)ethan-1-amine] |  |  |  |  |  |  |  |  |  |  | 15.84 | 25.8 | 53.8 | 67.5 | 
CCN(C)CCc1c[nH]c2ccc(SC)cc12 [Compound I-13, N-Ethyl-N-methyl-2-(5-(methylthio)-1H-indol-3-yl)ethan-1-amine] |  |  |  |  |  |  |  |  |  |  | 18.16 | 11.7 | 118 | 148 | EC50 [2, 12]: 2.89 nM; Emax (% of serotonin) [2, 13]: 92.77 % of serotonin; EC50 [3]: > 10000 nM; Emax (% of serotonin) [3, 16]: 21.04 % of serotonin
CSc1ccc2[nH]cc(CCN(C(C)C)C(C)C)c2c1 [Compound I-17, N-Isopropyl-N-(2-(5-(methylthio)-1H-indol-3-yl)ethyl)propan-2-amine] |  |  |  |  |  |  |  |  |  |  | 19.11 | 6.99 | 198 | 249 | 
CSc1ccc2[nH]cc(CCN(C)C(C)C)c2c1 [Compound I-19, N-Methyl-N-(2-(5-(methylthio)-1H-indol-3-yl)ethyl)propan-2-amine] |  |  |  |  |  |  |  |  |  |  | 16.93 | 18.7 | 74.1 | 92.9 | 
COc1ccc2[nH]cc(CCN(C)CCOC(F)F)c2c1 [Compound I-71, 2-(Difluoromethoxy)-N-(2-(5-methoxy-1H-indol-3-yl)ethyl)-N-methylethan-1-amine] | 17.80 | 13.7 | 101 | 100.00 | 26.55 | 4.78 | 100.00 | 98.77 | 104.91 | 127 |  |  |  |  | 
CN(C)CCc1c[nH]c2ccc(OCCOC(F)F)cc12 [Compound I-128, 2-(5-(2-(Difluoromethoxy)ethoxy)-1H-indol-3-yl)-N,N-dimethylethan-1-amine] | 16.28 | 22.8 | 60.8 | 100.00 | 41.35 | 16.15 | 100.00 | 39.57 | 16.12 | 76.2 |  |  |  |  | 
CN(CCOC(F)F)CCc1c[nH]c2ccccc12 [Compound I-130, N-(2-(1H-Indol-3-yl)ethyl)-2-(difluoromethoxy)-N-methylethan-1-amine] | 18.58 | 9.6 | 144 | 100.00 | 11.46 | 0.75 | 100.00 | 99.47 | 94.15 | 181 |  |  |  |  | 
